Measured values published in patent US20090318424A1, “NOVEL COMPOUNDS” (priority 2006, published 2009).
Structures can show the parent of a compound that is named as a salt.

test system: influx of neutrophils to the lung in LPS-challenged rats; assay: Rat LPS neutrophilia model; type: in vivo; settings: LPS aerosol 100 ug/ml 15 min, lavage 4 hours later; in at least one of the range of conditions tested
Protocol: The effect of compounds on the influx of neutrophils to the lung in LPS-challenged rats is evaluated as follows. The test compound is suspended in one of the following solutions: 0.5% tween 80/PBS, 0.5% tween 80/saline, 10% EtOH/saline (with pH adjusted to 2.0, or 8.0 with HCl, or unadjusted), Saline @ pH 2.0, 6.5 or 8.0, 0.5% Tragacanth, 1% DMSO/20% Encapsin/Saline, or acidified 5% Tragacanth. The suspension process may be aided by the use of a glass homogenizer. For intratracheal administration, the animals are anesthetized with inhaled isoflurane and placed in a supine position, the trachea is intubated with a steel gavage needle (1.5 inch, 22 gauge, small ball) or a Penn-Century Microsprayer Aerosolizer (model IA-IB) and 200 ul of dosing solution is delivered. The animals are visually monitored during the recovery process, which typically occurs within two minutes.
Rats treated with compound or vehicle (15 min-24 hours pretreatment) are exposed to an LPS aerosol (100 ug/ml) for 15 min. Four hours later the rats are euthanized with pentobarbital (100 mg/kg, i.p.) and the airways are lavaged with 5 washes of 5 ml of phosphate buffered saline. The harvested cells are stained (Diffquick) and counted to determine total and differential cell data. In a typical study, macrophages represent 40-70% of the total cells, and polymorphonuclear cells 30-60% of the total cells. Inhibition of neutrophil levels relative to no compound controls is calculated based on the differential counts.
The assay has varying conditions, such as concentration, pretreat time, form of the compound (crystalline, amorphous, salts, micronised), and a wet or dry application of the compound. The data is obtained as % inhibition using a particular concentration and pretreat time.

Compound | inhibition of neutrophilia
CN(C)CCNc1nc(-c2cccc(C(=O)Nc3nccs3)c2)c2c(n1)N(c1c(F)cccc1F)C(=O)NC2 [Example 92, 3-(8-(2,6-difluorophenyl)-2-{[2-(dimethylamino)ethyl]amino}-7-oxo-5,6,7,8-tetrahydropyrimido[4,5-d]pyrimidin-4-yl)-N-1,3-thiazol-2-ylbenzamide] | statistically significant inhibition
CN(C)CCNc1nc(-c2cccc(C(=O)Nc3ccc(F)cc3)c2)c2c(n1)N(c1c(F)cccc1F)C(=O)NC2 [Example 93, 3-(8-(2,6-difluorophenyl)-2-{[2-(dimethylamino)ethyl]amino}-7-oxo-5,6,7,8-tetrahydropyrimido[4,5-d]pyrimidin-4-yl)-N-(4-fluorophenyl)benzamide] | statistically nonsignificant inhibition
Cc1c(F)cc(C(=O)Nc2ccccc2)cc1-c1nc(NCCN(C)C)nc2c1CNC(=O)N2c1c(F)cccc1F [Example 112, 3-(8-(2,6-difluorophenyl)-2-{[2-(dimethylamino)ethyl]amino}-7-oxo-5,6,7,8-tetrahydropyrimido[4,5-d]pyrimidin-4-yl)-5-fluoro-4-methyl-N-phenylbenzamide] | statistically significant inhibition
Cc1ccc(C(=O)Nc2nccs2)cc1-c1nc(NCCCN(C)C)nc2c1CNC(=O)N2c1c(F)cccc1F [Example 119, 3-(8-(2,6-difluorophenyl)-2-{[3-(dimethylamino)propyl]amino}-7-oxo-5,6,7,8-tetrahydropyrimido[4,5-d]pyrimidin-4-yl)-4-methyl-N-1,3-thiazol-2-ylbenzamide] | statistically significant inhibition
CCN(CC)CCCNc1nc(-c2cc(C(=O)Nc3nccs3)ccc2C)c2c(n1)N(c1c(F)cccc1F)C(=O)NC2 [Example 120, 3-[2-{[3-(diethylamino)propyl]amino}-8-(2,6-difluorophenyl)-7-oxo-5,6,7,8-tetrahydropyrimido[4,5-d]pyrimidin-4-yl]-4-methyl-N-1,3-thiazol-2-ylbenzamide] | statistically significant inhibition
Cc1ccc(C(=O)Nc2nccs2)cc1-c1nc(N(C)CCCN(C)C)nc2c1CNC(=O)N2c1c(F)cccc1F [Example 124, 3-{8-(2,6-difluorophenyl)-2-[[3-(dimethylamino)propyl](methyl)amino]-7-oxo-5,6,7,8-tetrahydropyrimido[4,5-d]pyrimidin-4-yl}-4-methyl-N-1,3-thiazol-2-ylbenzamide] | statistically nonsignificant inhibition
CSc1ccc(NC(=O)c2ccc(C)c(-c3nc(NCCN(C)C)nc4c3CNC(=O)N4c3c(F)cccc3F)c2)cc1 [Example 127, 3-(8-(2,6-difluorophenyl)-2-{[2-(dimethylamino)ethyl]amino}-7-oxo-5,6,7,8-tetrahydropyrimido[4,5-d]pyrimidin-4-yl)-4-methyl-N-[4-(methylthio)phenyl]benzamide] | statistically significant inhibition
Cc1ccc(C(=O)Nc2nccs2)cc1-c1nc(NC[C@H](C)O)nc2c1CNC(=O)N2c1c(F)cccc1F [Example 134, 3-(8-(2,6-difluorophenyl)-2-{[(2S)-2-hydroxypropyl]amino}-7-oxo-5,6,7,8-tetrahydropyrimido[4,5-d]pyrimidin-4-yl)-4-methyl-N-1,3-thiazol-2-ylbenzamide] | statistically nonsignificant inhibition
Cc1ccc(C(=O)Nc2ccccc2)cc1-c1nc(NCCN(C)C)nc2c1CNC(=O)N2c1c(F)cccc1F [Example 137, 3-(8-(2,6-difluorophenyl)-2-{[2-(dimethylamino)ethyl]amino}-7-oxo-5,6,7,8-tetrahydropyrimido[4,5-d]pyrimidin-4-yl)-4-methyl-N-phenylbenzamide] | statistically significant inhibition
Cc1ccc(C(=O)Nc2ccc(F)c(F)c2)cc1-c1nc(NCCN(C)C)nc2c1CNC(=O)N2c1c(F)cccc1F [Example 138, N-(3,4-difluorophenyl)-3-(8-(2,6-difluorophenyl)-2-{[2-(dimethylamino)-ethyl]amino}-7-oxo-5,6,7,8-tetrahydropyrimido[4,5-d]pyrimidin-4-yl)-4-methylbenzamide] | statistically significant inhibition
COc1ccc(NC(=O)c2ccc(C)c(-c3nc(NCCN(C)C)nc4c3CNC(=O)N4c3c(F)cccc3F)c2)cn1 [Example 140, 3-(8-(2,6-difluorophenyl)-2-{[2-(dimethylamino)ethyl]amino}-7-oxo-5,6,7,8-tetrahydropyrimido[4,5-d]pyrimidin-4-yl)-4-methyl-N-[6-(methyloxy)-3-pyridinyl]benzamide] | statistically significant inhibition
CCc1ccc(C(=O)Nc2nccs2)cc1-c1nc(NCCN(C)C)nc2c1CNC(=O)N2c1c(F)cccc1F [Example 144, 3-(8-(2,6-difluorophenyl)-2-{[2-(dimethylamino)ethyl]amino}-7-oxo-5,6,7,8-tetrahydropyrimido[4,5-d]pyrimidin-4-yl)-4-ethyl-N-1,3-thiazol-2-ylbenzamide Trilfluoroacetate] | statistically significant inhibition
Cc1ccc(C(=O)NC(C)C)cc1-c1nc(N2CCCN(C)CC2)nc2c1CNC(=O)N2c1c(F)cccc1F [Example 179, 3-[8-(2,6-difluorophenyl)-2-(4-methylhexahydro-1H-1,4-diazepin-1-yl)-7-oxo-5,6,7,8-tetrahydropyrimido[4,5-d]pyrimidin-4-yl]-4-methyl-N-(1-methylethyl)benzamide Trifluoroacetate] | statistically nonsignificant inhibition
Cc1ccc(C(=O)NC(C)C)cc1-c1nc(NC2CCN(Cc3ccccc3)CC2)nc2c1CNC(=O)N2c1c(F)cccc1F [Example 200, 3-(8-(2,6-difluorophenyl)-7-oxo-2-{[1-(phenylmethyl)-4-piperidinyl]amino}-5,6,7,8-tetrahydropyrimido[4,5-d]pyrimidin-4-yl)-4-methyl-N-(1-methylethyl)benzamide] | statistically significant inhibition

test system: not given; assay: not given; settings: not given

Compound | melting point
COc1nc(-c2cc(NC(=O)c3ccsc3)ccc2C)c2c(n1)N(c1c(F)cccc1F)C(=O)NC2 [10(e), N-{3-[8-(2,6-difluorophenyl)-2-(methyloxy)-7-oxo-5,6,7,8-tetrahydropyrimido-[4,5-d]pyrimidin-4-yl]-4-methylphenyl}-3-thiophenecarboxamide] | 225 to 228 °C (dec.)
Cc1ccc(C(=O)NCc2ccccc2)cc1-c1nc(N2CCC(N)CC2)nc2c1CNC(=O)N2c1c(F)cccc1F [15(c), 3-[2-(4-Amino-1-piperidinyl)-8-(2,6-difluorophenyl)-7-oxo-5,6,7,8-tetrahydropyrimido[4,5-d]pyrimidin-4-yl]-4-methyl-N-(phenylmethyl)benzamide] | 210 to 266 °C (dec.)
CNCCNc1nc(-c2cc(C(=O)NCc3ccccc3)ccc2C)c2c(n1)N(c1c(F)cccc1F)C(=O)NC2 [19(b), 3-(8-(2,6-Difluorophenyl)-2-{[2-(methylamino)ethyl]amino}-7-oxo-5,6,7,8-tetrahydropyrimido[4,5-d]pyrimidin-4-yl)-4-methyl-N-(phenylmethyl)benzamide] | 157 to 161 °C
Cc1ccc(C(=O)NCc2ccccc2)cc1-c1nc(NC2CCNCC2)nc2c1CNC(=O)N2c1c(F)cccc1F [21(b), 3-[8-(2,6-Difluorophenyl)-7-oxo-2-(4-piperidinylamino)-5,6,7,8-tetrahydropyrimido[4,5-d]pyrimidin-4-yl]-4-methyl-N-(phenylmethyl)benzamide] | 172 to 176 °C (dec.)
Cc1ccc(C(=O)N(C)C)cc1-c1nc(N2CCN(C)CC2)nc2c1CNC(=O)N2c1c(F)cccc1F [149(c), 3-[8-(2,6-difluorophenyl)-2-(4-methyl-1-piperazinyl)-7-oxo-5,6,7,8-tetrahydropyrimido[4,5-d]pyrimidin-4-yl]-N,N,4-trimethylbenzamide] | 159 to 162 °C
CCN(CC)C(=O)c1ccc(C)c(-c2nc(NCCN(C)C)nc3c2CNC(=O)N3c2c(F)cccc2F)c1 [156(c), 3-(8-(2,6-difluorophenyl)-2-{[2-(dimethylamino)ethyl]amino}-7-oxo-5,6,7,8-tetrahydropyrimido[4,5-d]pyrimidin-4-yl)-N,N-diethyl-4-methylbenzamide] | 125 to 127 °C
Cc1ccc(NC(=O)c2ccsc2)cc1-c1nc(N(C)C)nc2c1CNC(=O)N2c1c(F)cccc1F [Example 12, N-{3-[8-(2,6-difluorophenyl)-2-(dimethylamino)-7-oxo-5,6,7,8-tetrahydropyrimido[4,5-d]pyrimidin-4-yl]-4-methylphenyl}-3-thiophenecarboxamide] | 214 to 215 °C
CCOc1nc(-c2cc(NC(=O)c3ccsc3)ccc2C)c2c(n1)N(c1c(F)cccc1F)C(=O)NC2 [Example 13, N-{3-[8-(2,6-difluorophenyl)-2-(ethyloxy)-7-oxo-5,6,7,8-tetrahydropyrimido[4,5-d]pyrimidin-4-yl]-4-methylphenyl}-3-thiophenecarboxamide] | 199 to 202 °C (dec.)
